In paper PMC3479146, “Flanking Residues Are Central to DO11.10 T Cell Hybridoma Stimulation by Ovalbumin 323–339” (PLoS ONE, 2012):
Values joined by “and” are separate entries in the source; they are usually repeats but may differ in a detail not shown here. Equal values may be shown once. Read-outs that look alike come from different tables or passages of the source. Marks after values point to notes of the source that are not given here. Where no end group is shown, it is not given here.

Key:
[1] = test system: I-A^d; conditions: cited from earlier work
Description: Table 1 Alternate registers within OVA 323–339. | column: Dissociation rate constants ^a / (k d, s^−1) || Peptide-MHC complex stability correlates broadly with immunogenicity, [21], as stable epitopes are more prevalent on the cell surface, and subsequently more likely to be recognized by responding T cells. Stability is commonly approximated as the dissociation rate of fluorescently labeled peptide from soluble MHC, although this approach can be complicated by highly overlapping registers. […] Supporting the thermodynamic stability of register one, a complex between the 323–339 peptide and I-A^d was cr ... || The HEL epitope consisting of residues 11 through 25 (HEL11-25) has been characterized as a weak MHC binder when presented by I-A^d, with a short half-life of approximately six hours that presumably results from a poorly accommodated arginine side chain in the P1 pocket. We compared the activities of wild type HEL11-25 to a variant in which the native P-4 to P-2 sequence was replaced with OVA-specific residues (QAV13-25) and a control in which these three residues were adjusted to GGS (GGS13-25). Since these changes lengthen the HEL11-25 peptide by a single amino acid, a control in whic ...

[2] = test system: HEL11–25 responsive T cell hybridoma; conditions: synthetic HEL peptide; A20 + HEL11-25 hybridoma cells, 24 h; IL-2 ELISA; 3-parameter curve fits of aggregate data from at least two experiments
Method: We compared the activities of wild type HEL11-25 to a variant in which the native P-4 to P-2 sequence was replaced with OVA-specific residues (QAV13-25) and a control in which these three residues were adjusted to GGS (GGS13-25). Since these changes lengthen the HEL11-25 peptide by a single amino acid, a control in which the HEL11-25 peptide was appended with an N-terminal glycine in position P-3 (G11-25) was also analyzed.
Each well of a 96-well plate was seeded with 15,000 A20 cells, 15,000 T cell hydridoma cells and peptide, malE chimera protein or control peptide/protein per well in DMEM media without L-glutamine, except where noted. After a 24-hour incubation at 37°C, 5% CO2, supernatant was transferred to a new plate and stored at −80°C prior to IL-2 quantification assays. All peptide/protein doses were performed in triplicate wells and all experiments replicated at least twice.
For malE chimeras and control protein experiments, the relevant protein was thawed, concentrated using 30K molecular weight cut-off centrifugal filter units (Millipore UFC903024) and filter-sterilized. Proteins were then quantified via absorbance at 280 nm using a predicted extinction coefficient and molecular weight, diluted to equal concentrations, the concentration confirmed and serially diluted in 96-well plates. […] Proteins were pre-incubated for four hours with antigen presenting cells (A20 or 3A5) cells prior to a 24-hour incubation with T cell hybridomas. The IL-2 concentration in the supernatant was quantified using a matched pair ELISA quantified with an IL-2 standard as described (BD #555148). All experiments were performed at least twice, and all wells were measured in triplicate. Data was analyzed with Graphpad Prism 5 (La Jolla, CA).

[3] = test system: DO11.10 T cell hybridoma; experiment: DO11.10 hybridoma IL-2 secretion with A20 antigen presenting cells and exogenous OVA peptide variants; type: cell-based, murine; conditions: synthetic peptide; 15,000 A20 + 15,000 DO11.10 cells per well, 24 h, 37°C, DMEM without L-glutamine; IL-2 by matched pair ELISA; 3-parameter curve fits of aggregate data from at least two experiments
Method: Two previous reports described anchor substitutions to stabilize register four. […] To assess the relative success of these attempts, we synthesized both variants, along with an N-terminally truncated version of the Robertson peptide (328–339 EIVS; Table 2) to remove the effects of flanking residues which we hypothesized would promote register masking. To assess peptide activity, DO11.10 hybridomas were incubated for 24 hours with I-A^d+ A20 lymphoma cells in the presence of peptide, and supernatant was subsequently assessed for the presence IL-2 by a matched pair ELISA as a measure of T cell activation. […]
(§1) Each well of a 96-well plate was seeded with 15,000 A20 cells, 15,000 T cell hydridoma cells and peptide, malE chimera protein or control peptide/protein per well in DMEM media without L-glutamine, except where noted. After a 24-hour incubation at 37°C, 5% CO2, supernatant was transferred to a new plate and stored at −80°C prior to IL-2 quantification assays. […]
For malE chimeras and control protein experiments, the relevant protein was thawed, concentrated using 30K molecular weight cut-off centrifugal filter units (Millipore UFC903024) and filter-sterilized. Proteins were then quantified via absorbance at 280 nm using a predicted extinction coefficient and molecular weight, diluted to equal concentrations, the concentration confirmed and serially diluted in 96-well plates. […]

[4] = test system: DO11.10 T cell hybridoma; experiment: DO11.10 hybridoma IL-2 secretion with A20 cells and malE chimeras containing OVA epitope variants; type: cell-based, murine; conditions: malE chimera protein pre-incubated 4 h with A20 cells, then 24 h with DO11.10, IL-2 ELISA, 3-parameter curve fits of aggregate data from at least two experiments
Description: Peptide sequences were introduced into the exposed loop in place of residues 133–140 as first described by Martineau et al., with a glycine-serine extension (GSGSG) appended to the N-terminus of inserted epitopes to increase solubility (Figure 3A, Table 4). The activity of the N-terminally truncated peptides in MBP (325–337, 327–337, 328–337) indicates a maintained preference for wild type flanking residues as was previously observed with synthetic peptides (Figure 3A, Table 4). […] The increased activity of variants retaining the wild type P-3 and P-4 residues of register four during intracellular processing again supports their direct role in mediating the peptide and MHC interaction. […]
as §1
For malE chimeras and control protein experiments, the relevant protein was thawed, concentrated using 30K molecular weight cut-off centrifugal filter units (Millipore UFC903024) and filter-sterilized. […] The IL-2 concentration in the supernatant was quantified using a matched pair ELISA quantified with an IL-2 standard as described (BD #555148). […]

[5] = apparent first order dissociation constant of presumed isolated register from purified I-A^d, single exponential fits to monophasic dissociation data

In the case of “323–335 Q325A: literature OVA 323–335 peptide with alanine at position 325, used for register 1 dissociation”, the “Dissociation rate constants (k d, s^−1)” value [1, 5] is given as 2.3e-06 s⁻¹.

For “325–336: literature OVA 325–336 peptide used for register 3 dissociation”, the “Dissociation rate constants (k d, s^−1)” value [1, 5] is listed as 2.6e-06 s⁻¹.

In the case of “327–339 V327K: literature OVA 327–339 peptide with lysine at position 327, used for register 4 dissociation”, the “Dissociation rate constants (k d, s^−1)” value ([1]; apparent first order dissociation constant from purified I-A^d, back-calculated from reported half-life of dissociation) is given as 0.0006 s⁻¹ and the “half-life of peptide dissociation from I-A^d” value ([1]; register four core truncated at P-2, P-2 valine altered to lysine) is given as “around twenty”.

In the case of AMKRHGLDNYRGYSL [HEL11-25], the “half-life when presented by I-A^d” value [1] is listed as “approximately six” and the “Max response (ng/ml IL-2)” value [2] is listed as 0.7 ng/ml IL-2.

In the case of GAMKRHGLDNYRGYSL [Peptide G11-25], the “Max response (ng/ml IL-2)” value [2] is reported as 0.7 ng/ml IL-2.

In the case of GGSKRHGLDNYRGYSL [GGS13-25], the “Max response (ng/ml IL-2)” value [2] is reported as 0.5 ^* ng/ml IL-2.

Work on ISQAVHAAHAEINEAGR [323–339] yielded an EC50 [3] of 1.6 µM.

For “MalE chimera 325–337: maltose binding protein with OVA 325–337 replacing malE residues 133–140”, the “Max response (ng/ml IL-2)” value [4] was 1.1 ^* ng/ml IL-2 and the EC50 ([4]; read-out: EC50 (µM peptide)) was 18 µM.

With QAVKRHGLDNYRGYSL [QAV13-25] the “Max response (ng/ml IL-2)” value [2] was 1.5 ng/ml IL-2 and 1.5 ^* ng/ml IL-2.
